From patent publication US4400387A, “Indolizine derivatives and uses in therapeutics” (S. A. Labaz-Sanofi N.V., priority 1979, dated 1983)

What was measured:
[1] = target: T1, adenosine deaminase obtained from calf intestine (Bos taurus, UniProt P56658); assay: Inhibition of the action of adenosine deaminase in vitro (decrease in absorbance at 265 nm); assay type: biochemical; details: pH 7.4, 30° C.
T1 construct: purchased
T1 sequence (P56658 1-363): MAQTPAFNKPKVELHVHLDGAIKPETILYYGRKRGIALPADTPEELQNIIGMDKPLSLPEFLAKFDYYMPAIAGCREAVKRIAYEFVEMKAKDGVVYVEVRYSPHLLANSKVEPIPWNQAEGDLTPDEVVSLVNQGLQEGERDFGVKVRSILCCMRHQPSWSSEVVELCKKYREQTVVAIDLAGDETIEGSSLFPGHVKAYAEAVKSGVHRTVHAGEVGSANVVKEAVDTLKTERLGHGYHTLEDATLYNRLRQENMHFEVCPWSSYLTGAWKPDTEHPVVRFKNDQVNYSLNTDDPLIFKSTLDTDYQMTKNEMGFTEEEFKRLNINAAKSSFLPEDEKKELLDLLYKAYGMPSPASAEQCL
Experimental: This test was performed with adenosine deaminase obtained from calf intestine.
(§1) The experimental procedure described hereunder was used:
In the absorption cell the following solutions were introduced:
2.7 ml of a 0.1 molar phosphate buffer solution (pH=7.4)
0.3 ml of a 10^-4 or 5.10^-4 molar solution of adenosine in the phosphate buffer solution (final concentration in adenosine: 10^-5 or 5.10^-5 mol) 0.01 ml of a 3.10^-3 molar ethanolic solution of the compound to be studied (about 10 milliunits)
The contents of the absorption cell were allowed to incubate for 2 minutes and then the enzymatic reaction was started by adding 0.03 ml of a commercial adenosine deaminase solution having a known concentration in enzyme. The reaction was performed at 30° C. and followed by spectrophotometric recording of the decrease in absorbance at 265 nm due to the transformation of adenosine into inosine by means of adenosine deaminase. This enzymatic reaction can be represented by the following equation: [formula]
The same measurements were performed with a control solution containing all the ingredients referred to above except the compound being studied. Curves were then plotted representing the decrease in absorbance in comparison with time obtained on the one hand with the solution containing the inhibitor and on the other with the control solution.
The slope of both curves was measured and expressed in the number of mols of inosine formed in one minute. After that, the percent of inhibition of the activity of adenosine deaminase provoked by a compound of the invention was calculated.

[2] = target: T2, xanthine oxidase found in milk (Bos taurus, UniProt P80457); assay: Inhibition of the action of xanthine oxidase in vitro (U.V. spectrophotometry, formation of uric acid from hypoxanthine); assay type: biochemical; details: compound at 10^-5 M; hypoxanthine substrate, pH 7.4, 37° C.
T2 construct: purchased
T2 sequence (P80457 whole entry): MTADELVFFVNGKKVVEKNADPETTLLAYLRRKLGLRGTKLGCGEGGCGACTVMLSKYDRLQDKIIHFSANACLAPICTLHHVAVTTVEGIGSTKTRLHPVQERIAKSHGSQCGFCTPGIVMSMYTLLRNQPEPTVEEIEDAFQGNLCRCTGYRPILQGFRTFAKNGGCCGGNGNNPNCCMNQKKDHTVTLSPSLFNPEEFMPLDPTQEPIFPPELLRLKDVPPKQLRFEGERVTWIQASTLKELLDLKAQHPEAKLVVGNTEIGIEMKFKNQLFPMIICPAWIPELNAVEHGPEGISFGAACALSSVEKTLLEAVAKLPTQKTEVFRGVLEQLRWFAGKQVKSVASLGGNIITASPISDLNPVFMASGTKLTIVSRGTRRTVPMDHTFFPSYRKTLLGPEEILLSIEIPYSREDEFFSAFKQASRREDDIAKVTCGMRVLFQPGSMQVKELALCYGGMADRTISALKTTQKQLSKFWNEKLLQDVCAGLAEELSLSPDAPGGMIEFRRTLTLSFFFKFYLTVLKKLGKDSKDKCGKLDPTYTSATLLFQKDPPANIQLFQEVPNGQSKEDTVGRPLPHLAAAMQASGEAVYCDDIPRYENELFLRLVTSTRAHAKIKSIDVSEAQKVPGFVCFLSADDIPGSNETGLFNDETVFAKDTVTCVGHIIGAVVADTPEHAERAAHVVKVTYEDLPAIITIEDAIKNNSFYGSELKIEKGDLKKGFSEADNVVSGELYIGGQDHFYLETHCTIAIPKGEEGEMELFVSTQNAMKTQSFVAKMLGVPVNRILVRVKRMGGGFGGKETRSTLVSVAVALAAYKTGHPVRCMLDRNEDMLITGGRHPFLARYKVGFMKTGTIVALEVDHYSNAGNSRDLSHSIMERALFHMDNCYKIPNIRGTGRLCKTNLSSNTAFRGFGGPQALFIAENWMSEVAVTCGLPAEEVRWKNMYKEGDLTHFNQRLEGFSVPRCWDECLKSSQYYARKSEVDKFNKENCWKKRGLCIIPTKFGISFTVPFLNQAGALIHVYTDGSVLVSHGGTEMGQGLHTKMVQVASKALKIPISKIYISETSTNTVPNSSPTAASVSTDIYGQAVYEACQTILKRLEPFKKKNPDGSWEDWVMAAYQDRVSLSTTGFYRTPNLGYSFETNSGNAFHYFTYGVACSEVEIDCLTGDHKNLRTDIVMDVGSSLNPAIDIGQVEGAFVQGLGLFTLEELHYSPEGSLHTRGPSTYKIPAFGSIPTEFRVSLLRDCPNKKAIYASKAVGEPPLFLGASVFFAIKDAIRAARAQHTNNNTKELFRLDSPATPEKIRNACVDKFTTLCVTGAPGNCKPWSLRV
Experimental: This trial was performed with xanthine oxidase found in milk. The activity of the enzymatic preparation was measured by following the formation of uric acid starting from hypoxanthine in the presence of oxygen and of a phosphate buffer solution.
as §1
In the absorption cell, the following solutions were introduced:
1.5 ml of a 0.1 molar phosphate buffer solution (pH=7.4) saturated with oxygen.
0.3 ml of a 1 m molar solution of ethylene diamine tetraacetate.
0.01 ml of a commercial xanthine oxidase solution having a known concentration in enzyme.
0.01 ml of a 3.10^-3 molar ethanolic solution of the compound to be tested.
The contents of the absorption cell were allowed to incubate for 2 minutes and then the enzymatic reaction was started by adding 0.3 ml of a 10^-3 molar solution of hypoxanthine to the absorption cell. The reaction was followed by spectrophotometric recording of the oxidation rate of hypoxanthine at 293 nm and at 37° C. The optical density was automatically registered. The same measurements were performed with a control solution containing all the ingredients referred to above except the compound being tested.
In this way, a curve representing the variation in optical density in comparison with time was obtained with the solution containing the inhibitor on the one hand and devoid of inhibitor on the other. The slope of both curves was measured and expressed in the number of mols of uric acid formed in one minute. Thus, it was possible to compare the values obtained and calculate, in percent, the inhibition of the activity of xanthine oxidase provoked by a compound of the invention.

SMILES	Inhibition of the action of adenosine deaminase in vitro (in %) At 10^-5 M adenosine [1]	inhibition at 10 µM [2] [%]	other results
CCc1oc2ccccc2c1C(=O)c1cc(Br)c(O)c(Br)c1 [2-ethyl-3-(3,5-dibromo-4-hydroxy-benzoyl)-benzofuran, reference compound]	totally inactive		
CCc1oc2ccccc2c1C(=O)c1cc(I)c(O)c(I)c1 [2-ethyl-3-(3,5-diiodo-4-hydroxy-benzoyl)-benzofuran, reference compound]	totally inactive		
CCc1oc2ccccc2c1C(=O)c1ccc(O)cc1 [2-ethyl-3-(4-hydroxy-benzoyl)-benzofuran, reference compound]	18%		
CC(C)c1oc2ccccc2c1C(=O)c1cc(Br)c(O)c(Br)c1 [2-isopropyl-3-(3,5-dibromo-4-hydroxy-benzoyl)-benzofuran, reference compound]	totally inactive		
CCCCc1oc2ccccc2c1C(=O)c1cc(Br)c(O)c(Br)c1 [2-n-butyl-3-(3,5-dibromo-4-hydroxy-benzoyl)-benzofuran, reference compound]	totally inactive		
O=C(c1cc(Br)c(O)c(Br)c1)c1c(-c2ccccc2)oc2ccccc12 [2-phenyl-3-(3,5-dibromo-4-hydroxy-benzoyl)-benzofuran, reference compound]	15%		
O=C(c1ccc(O)cc1)c1c(-c2cccc(Br)c2)c(Cl)c2ccccn12 [3-Bromo-phenyl Cl H H, 1-Chloro-2-(3-bromo-phenyl)-3-(4-hydroxy-benzoyl)indolizine]			Inhibition of the action of adenosine deaminase in vitro (in %) At 5.10^-5 M adenosine [1]: 55%
O=C(c1ccc(O)c(Cl)c1)c1c(-c2cccc(Br)c2)cc2ccccn12 [3-Bromo-phenyl H H Cl, 2-(3-Bromo-phenyl)-3-(3-chloro-4-hydroxy-benzoyl)-indolizine]		23	
O=C(c1cc(Br)c(O)c(Br)c1)c1c(-c2ccc(Br)cc2)cc2ccccn12 [4-Bromo-phenyl H Br Br, 2-(4-Bromo-phenyl)-3-(3,5-dibromo-4-hydroxy-benzoyl)-indolizine]		23	
O=C(c1ccc(O)c(Br)c1)c1c(-c2ccc(Br)cc2)cc2ccccn12 [4-Bromo-phenyl H H Br, 2-(4-Bromo-phenyl)-3-(3-bromo-4-hydroxy-benzoyl)-indolizine]		22	
O=C(c1ccc(O)c(Br)c1)c1c(-c2ccc(F)cc2)cc2ccccn12 [4-Fluoro-phenyl H H Br, 2-(4-Fluoro-phenyl)-3-(3-bromo-4-hydroxy-benzoyl)-indolizine]	60%		
COc1cc(C(=O)c2c(-c3ccc(F)cc3)cc3ccccn23)ccc1O [4-Fluoro-phenyl H H OCH3, 2-(4-Fluoro-phenyl)-3-(3-methoxy-4-hydroxy-benzoyl)-indolizine]			Inhibition of the action of adenosine deaminase in vitro (in %) At 5.10^-5 M adenosine [1]: 39%
COc1ccc(-c2c(Br)c3ccccn3c2C(=O)c2ccc(O)c(Br)c2)cc1 [4-Methoxy-phenyl Br Br H, 1-Bromo-2-(4-methoxy-phenyl)-3-(3-bromo-4-hydroxy-benzoyl)-indolizine]		80	
Cc1ccc(-c2c(Br)c3ccccn3c2C(=O)c2ccc(O)cc2)cc1 [4-Methyl-phenyl Br H H, 1-Bromo-2-(4-methyl-phenyl)-3-(4-hydroxy-benzoyl)-indolizine]		48	
CCc1c(Br)c2ccccn2c1C(=O)c1ccc(O)c(Br)c1 [Ethyl Br Br H, 1-Bromo-2-ethyl-3-(3-bromo-4-hydroxy-benzoyl)-indolizine]		93	
CCc1c(Cl)c2ccccn2c1C(=O)c1cc(Br)c(O)c(Br)c1 [Ethyl Cl Br Br, 1-Chloro-2-ethyl-3-(3,5-dibromo-4-hydroxy-benzoyl)-indolizine]		64	

SMILES	Inhibition of the action of adenosine deaminase in vitro (in %) At 10^-5 M adenosine [1]	inhibition at 10 µM [2] [%]	other results
CCc1c(Cl)c2ccccn2c1C(=O)c1ccc(O)c(Br)c1 [Ethyl Cl Br H, 1-Chloro-2-ethyl-3-(3-bromo-4-hydroxy-benzoyl)-indolizine]		34	
CCc1cc2ccccn2c1C(=O)c1cc(Cl)c(O)c(Cl)c1 [Ethyl H Cl Cl, 2-Ethyl-3-(3,5-dichloro-4-hydroxy-benzoyl)-indolizine]		98	
CCc1cc2ccccn2c1C(=O)c1ccc(O)c(Cl)c1 [Ethyl H H Cl, 2-Ethyl-3-(3-chloro-4-hydroxy-benzoyl)-indolizine]		87	
CCc1cc2ccccn2c1C(=O)c1ccc(O)c(OC)c1 [Ethyl H H OCH3, 2-Ethyl-2-(3-methoxy-4-hydroxy-benzoyl)-indolizine]		57	
CC(C)c1c(Br)c2ccccn2c1C(=O)c1cc(Br)c(O)c(Br)c1 [Isopropyl Br Br Br, 1-Bromo-2-isopropyl-3-(3,5-dibromo-4-hydroxy-benzoyl)-indolizine]	57%		
CC(C)c1c(Br)c2ccccn2c1C(=O)c1ccc(O)c(Br)c1 [Isopropyl Br Br H, 1-Bromo-2-isopropyl-3-(3-bromo-4-hydroxy-benzoyl)-indolizine]	75%		Inhibition of the action of adenosine deaminase in vitro (in %) At 5.10^-5 M adenosine [1]: 54%
O=C(c1ccc(O)c(Cl)c1)c1c(-c2ccccc2)c(Br)c2ccccn12 [Phenyl Br Cl H, 1-Bromo-2-phenyl-3-(3-chloro-4-hydroxy-benzoyl)-indolizine]			Inhibition of the action of adenosine deaminase in vitro (in %) At 5.10^-5 M adenosine [1]: 86%
O=C(c1ccc(O)cc1)c1c(-c2ccccc2)c(Br)c2ccccn12 [Phenyl Br H H, 1-Bromo-2-phenyl-3-(4-hydroxy-benzoyl)-indolizine]			Inhibition of the action of adenosine deaminase in vitro (in %) At 5.10^-5 M adenosine [1]: 52%
O=C(c1cc(Cl)c(O)c(Cl)c1)c1c(-c2ccccc2)c(Cl)c2ccccn12 [Phenyl Cl Cl Cl, 1-Chloro-2-phenyl-3-(3,5-dichloro-4-hydroxy-benzoyl)-indolizine]			Inhibition of the action of adenosine deaminase in vitro (in %) At 5.10^-5 M adenosine [1]: 57%
O=C(c1ccc(O)c(Br)c1)c1c(-c2ccccc2)cc2ccccn12 [Phenyl H H Br, 2-Phenyl-3-(3-bromo-4-hydroxy-benzoyl)-indolizine]	78%		
O=C(c1ccc(O)c(Cl)c1)c1c(-c2ccccc2)cc2ccccn12 [Phenyl H H Cl, 2-Phenyl-3-(3-chloro-4-hydroxy-benzoyl)-indolizine]	58%		
COc1c(-c2ccccc2)c(C(=O)c2ccc(O)c(Br)c2)n2ccccc12 [Phenyl OCH3 Br H, 1-Methoxy-2-phenyl-3-(3-bromo-4-hydroxy-benzoyl)-indolizine]			Inhibition of the action of adenosine deaminase in vitro (in %) At 5.10^-5 M adenosine [1]: 91%
COc1c(-c2ccccc2)c(C(=O)c2ccc(O)c(Cl)c2)n2ccccc12 [Phenyl OCH3 Cl H, 1-Methoxy-2-phenyl-3-(3-chloro-4-hydroxy-benzoyl)-indolizine]			Inhibition of the action of adenosine deaminase in vitro (in %) At 5.10^-5 M adenosine [1]: 82%
CCCCc1c(Br)c2ccccn2c1C(=O)c1ccc(O)cc1 [n-Butyl Br H H, 1-Bromo-2-n-butyl-3-(4-hydroxy-benzoyl)-indolizine]	45%		
CCCCc1cc2ccccn2c1C(=O)c1ccc(O)c(Br)c1 [n-Butyl H H Br, 2-n-Butyl-3-(3-bromo-4-hydroxy-benzoyl)-indolizine]	60%		
CCCc1cc2ccccn2c1C(=O)c1ccc(O)c(Cl)c1 [n-Propyl H H Cl, 2-n-Propyl-3-(3-chloro-4-hydroxy-benzoyl)-indolizine]	42%		
